The values below come from patent publication US10086085B2, “Bifunctional cytotoxic agents” (priority 2014, dated 2018).

The subject of test [1] is N87 (human gastric carcinoma derived from metastatic liver site). As to the kind of experiment: Cytotoxicity assay for payloads (MTS), N87 cells. In kind it is cell-based. Conditions: Homo sapiens, 96 h; N87 cells, incubated with compounds for four days, MTS absorbance 490 nm; read-out: N87 IC50. The protocol:
(§1) Cancer cell lines were obtained from ATCC (Manassas, Va.). N87 (human gastric carcinoma derived from metastatic liver site). HL60 (leukemia), A375 (melanoma) and HUVEC (human umbilical vein endothelial cells). were grown in RPMI 1640 media. All media were supplemented with 10% fetal bovine serum, 1% sodium pyruvate, and 1% L-glutamine (Invitrogen, Grand Island, N.Y.). Human umbilical vein endothelial cells (HUVEC) were obtained from Lonza (Allendale, N.J.) and maintained in EGM2 media supplemented with EGM-2 SingleQuots (Lonza # CC-4176). All cells were maintained in a humidified incubator (37° C., 5% CO2).
(§2) Cells in 100 μl medium were cultured in a 96-well plate. Cancer cell lines treated with the indicated compounds by adding 50 μl of 3× stocks in duplicate at 10 concentrations. Cells were incubated with compounds for four days, then 30 μl of CellTiter® 96 AQueous One MTS Solution (Promega Cat # G3582) was added to the cells, incubated 1.5 hr at 37° C., then absorbance measured at 490 nm on a Victor plate reader (Perkin Elmer, Waltham, Mass.). Relative cell viability was determined as a percentage of untreated control wells. IC50 values were calculated using four parameter logistic model #203 with XLfit v4.2 (IDBS, Guildford, Surry, UK).

The subject of a further test is HL60 (leukemia). The test can be described thus: Cytotoxicity assay for payloads (MTS), HL-60 cells. In kind it is cell-based. As to conditions: Homo sapiens, 96 h, incubated with compounds for four days, MTS absorbance 490 nm. The protocol:
as §1, §2

One may read the IC50 as the point on the concentration scale where inhibition reaches its midpoint. With `CC(=O)Oc1cc2c(c3ccccc13)[C@H](CCl)CN2C(=O)c1ccc(C(=O)N2C[C@@H](CCl)c3c2cc(N)c2ccccc32)s1` [Compound 115, Acetic acid (S)-3-[5-((S)-5-amino-1-chloromethyl-1,2-dihydro-benzo[e]indole-3-carbonyl)-thiophene-2-carbonyl]-1-chloromethyl-2,3-dihydro-1H-benzo[e]indol-5-yl ester], the IC50 in test [1] was 1.44 nM; in the test on HL60 (leukemia), 0.015 nM.

`CC(=O)Oc1cc2c(c3c(C)c[nH]c13)[C@H](CCl)CN2C(=O)CC12CC(C(=O)N3C[C@@H](CCl)c4c3cc(OC(C)=O)c3[nH]cc(C)c43)(C1)C2` [Compound 97, (8S)-6-[(3-{[(1S)-5-(acetyloxy)-1-(chloromethyl)-8-methyl-1,6-dihydropyrrolo[3,2-e]indol-3(2H)-yl]carbonyl}bicyclo[1.1.1]pent-1-yl)acetyl]-8-(chloromethyl)-1-methyl-3,6,7,8-tetrahydropyrrolo[3,2-e]indol-4-yl acetate]: the results for the IC50 (in test [1]; in the test on HL60 (leukemia)) were 0.222 nM and 0.009 nM, respectively.

Turning to `COc1c(C(=O)N2C[C@@H](CCl)c3c2cc(OC(C)=O)c2ccccc32)sc(C(=O)N2C[C@@H](CCl)c3c2cc(OC(C)=O)c2ccccc32)c1OC` [Compound 143, (3,4-dimethoxythiene-2,5-diyl)bis[carbonyl(1S)-1-(chloromethyl)-1,2-dihydro-3H-benzo[e]indole-3,5-diyl] diacetate], the IC50 is at least 100 nM in test [1] and at least 10 nM in the test on HL60 (leukemia).

Take `O=C(CNCC(=O)N1C[C@@H](CCl)c2c1cc(OP(=O)(O)O)c1ccccc21)N1C[C@@H](CCl)c2c1cc(OP(=O)(O)O)c1ccccc21` [Compound 173, iminobis[(1-oxoethane-2,1-diyl)(1S)-1-(chloromethyl)-1,2-dihydro-3H-benzo[e]indole-3,5-diyl] bis[dihydrogen (phosphate)]]: the IC50 in test [1] stood at 13.1 nM; in the test with HL60 (leukemia), 0.169 nM.

On to `O=C(OCC1c2ccccc2-c2ccccc21)N(CC(=O)N1C[C@@H](CCl)c2c1cc(O)c1ccccc21)CC(=O)N1C[C@@H](CCl)c2c1cc(O)c1ccccc21` [Compound 172, 9H-fluoren-9-ylmethyl bis{2-[(1S)-1-(chloromethyl)-5-hydroxy-1,2-dihydro-3H-benzo[e]indol-3-yl]-2-oxoethyl}carbamate], for which the figures for the IC50 (in test [1]; in the test with HL60 (leukemia)) were 13.8 nM and 0.474 nM, respectively.

Take `Cc1c[nH]c2c1[C@@]13C[C@@H]1CN(C(=O)C14CC(C(=O)N5C[C@H]6C[C@@]67C5=CC(=O)c5[nH]cc(C)c57)(C1)C4)C3=CC2=O` [Compound 135, (3bR,4aS,3b′R,4a′S)-6,6′-(bicyclo[1.1.1]pentane-1,3-diyldicarbonyl)bis(3-methyl-4,4a,5,6-tetrahydrocyclopropa[c]pyrrolo[3,2-e]indol-8(1H)-one)]: the figures for the IC50 (in test [1]; in the test on HL60 (leukemia)) were 0.019 nM and 0.005 nM, respectively.

Turning to `Cc1c[nH]c2c(O)cc3c(c12)[C@H](CCl)CN3C(=O)C12CC(C(=O)N3C[C@@H](CCl)c4c3cc(N)c3ccccc43)(C1)C2` [Compound 180, [(1S)-5-amino-1-(chloromethyl)-1,2-dihydro-3H-benzo[e]indol-3-yl](3-{[(1S)-1-(chloromethyl)-5-hydroxy-8-methyl-1,6-dihydropyrrolo[3,2-e]indol-3(2H)-yl]carbonyl}bicyclo[1.1.1]pent-1-yl)methanone], the values for the IC50 (in test [1]; with HL60 (leukemia)) were 0.425 nM and 0.048 nM, respectively.

For `CC(=O)Nc1ccc2c(OC(C)=O)cc3c(c2c1)[C@@H](CCl)CN3C(=O)C12CC(C(=O)N3C[C@@H](CCl)c4c3cc(OC(C)=O)c3ccccc43)(C1)C2` [Compound 108, (1R)-8-(acetylamino)-3-[(3-{[(1S)-5-(acetyloxy)-1-(chloromethyl)-1,2-dihydro-3H-benzo[e]indol-3-yl]carbonyl}bicyclo[1.1.1]pent-1-yl)carbonyl]-1-(chloromethyl)-1,2-dihydro-3H-benzo[e]indol-5-yl acetate], the IC50 in test [1] worked out at 3.98 nM; with HL60 (leukemia), 0.431 nM.
